Experimental data reported in article PMC9832397 (Nature chemistry, 2022).
Blank lines part the entries; values can stand above or below the compound they belong to.

Key:
[1] = molecular target: DEBS module 6 including its C-terminal TE domain (DEBS M6+TE), wildtype (Saccharopolyspora erythraea); experiment: SEC
[2] = molecular target: T1, MAT (malonyl-/acetyl transferase domain of murine FAS) (Mus musculus, UniProt P19096); experiment: enzyme-coupled fluorometric transacylation assay; assay type: biochemical; conditions: individual domains; acceptor DEBS ACP6 presumed
T1 sequence (P19096 488-816 limits assumed): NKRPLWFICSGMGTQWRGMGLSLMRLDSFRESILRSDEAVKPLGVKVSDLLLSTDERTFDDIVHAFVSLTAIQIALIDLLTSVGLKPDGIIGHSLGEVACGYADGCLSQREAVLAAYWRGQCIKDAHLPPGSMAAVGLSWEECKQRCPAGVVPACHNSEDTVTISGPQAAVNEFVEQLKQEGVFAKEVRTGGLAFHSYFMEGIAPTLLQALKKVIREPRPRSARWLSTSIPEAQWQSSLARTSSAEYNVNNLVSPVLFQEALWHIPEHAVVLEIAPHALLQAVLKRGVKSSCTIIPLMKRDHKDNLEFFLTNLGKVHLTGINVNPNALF

[3] = molecular target: DEBS M6+TE (WT) (Saccharopolyspora erythraea, UniProt Q03133); experiment: NADPH consumption assay; assay type: biochemical; conditions: 400 mM phosphate pH 7.2, 25 °C
Chain of DEBS M6+TE (WT) (Q03133 1470-3172 limits assumed): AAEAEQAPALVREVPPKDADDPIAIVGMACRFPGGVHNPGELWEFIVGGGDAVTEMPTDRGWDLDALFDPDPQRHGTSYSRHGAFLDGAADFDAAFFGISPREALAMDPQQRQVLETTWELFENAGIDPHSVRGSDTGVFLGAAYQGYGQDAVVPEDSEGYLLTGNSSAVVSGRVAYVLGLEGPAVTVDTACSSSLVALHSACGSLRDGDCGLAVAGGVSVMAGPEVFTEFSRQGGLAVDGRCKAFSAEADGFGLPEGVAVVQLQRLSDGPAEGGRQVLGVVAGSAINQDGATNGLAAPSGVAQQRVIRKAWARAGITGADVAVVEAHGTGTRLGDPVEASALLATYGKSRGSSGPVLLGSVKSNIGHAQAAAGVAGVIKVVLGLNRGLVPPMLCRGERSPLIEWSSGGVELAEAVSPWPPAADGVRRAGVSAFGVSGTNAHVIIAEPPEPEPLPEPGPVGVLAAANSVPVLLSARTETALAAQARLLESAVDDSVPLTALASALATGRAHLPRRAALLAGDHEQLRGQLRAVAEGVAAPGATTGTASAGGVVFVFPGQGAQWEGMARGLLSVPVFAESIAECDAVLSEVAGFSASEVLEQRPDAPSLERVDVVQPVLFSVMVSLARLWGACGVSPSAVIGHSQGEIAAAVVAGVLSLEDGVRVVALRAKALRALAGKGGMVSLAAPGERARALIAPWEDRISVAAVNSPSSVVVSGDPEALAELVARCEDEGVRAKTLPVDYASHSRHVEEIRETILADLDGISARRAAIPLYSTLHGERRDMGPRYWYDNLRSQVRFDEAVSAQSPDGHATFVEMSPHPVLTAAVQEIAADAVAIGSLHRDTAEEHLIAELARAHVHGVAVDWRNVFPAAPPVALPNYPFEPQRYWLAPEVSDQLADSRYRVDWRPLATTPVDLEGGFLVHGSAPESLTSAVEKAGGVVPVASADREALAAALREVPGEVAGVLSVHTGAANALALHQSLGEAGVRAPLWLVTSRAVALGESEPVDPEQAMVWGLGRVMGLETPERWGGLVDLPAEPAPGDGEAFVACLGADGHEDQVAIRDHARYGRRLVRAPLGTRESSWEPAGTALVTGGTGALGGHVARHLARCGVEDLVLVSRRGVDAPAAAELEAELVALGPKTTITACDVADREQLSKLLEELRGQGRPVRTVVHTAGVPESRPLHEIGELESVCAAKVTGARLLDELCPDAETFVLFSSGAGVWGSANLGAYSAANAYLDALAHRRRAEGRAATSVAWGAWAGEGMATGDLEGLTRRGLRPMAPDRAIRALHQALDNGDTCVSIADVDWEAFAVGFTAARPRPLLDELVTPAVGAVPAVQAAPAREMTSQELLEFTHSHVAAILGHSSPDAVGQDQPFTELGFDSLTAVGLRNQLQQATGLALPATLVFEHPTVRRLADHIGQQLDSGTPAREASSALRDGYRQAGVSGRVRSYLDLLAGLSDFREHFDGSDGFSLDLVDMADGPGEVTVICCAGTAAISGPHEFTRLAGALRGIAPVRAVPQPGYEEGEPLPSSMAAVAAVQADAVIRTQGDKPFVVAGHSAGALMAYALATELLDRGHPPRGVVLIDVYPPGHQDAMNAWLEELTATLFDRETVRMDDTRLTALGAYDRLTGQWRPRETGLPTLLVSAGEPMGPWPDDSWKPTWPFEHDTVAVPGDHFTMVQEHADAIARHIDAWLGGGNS

Chain of DEBS module 6 including its C-terminal TE domain (DEBS M6+TE), wildtype (domain or fragment) (Q03133 2-3172): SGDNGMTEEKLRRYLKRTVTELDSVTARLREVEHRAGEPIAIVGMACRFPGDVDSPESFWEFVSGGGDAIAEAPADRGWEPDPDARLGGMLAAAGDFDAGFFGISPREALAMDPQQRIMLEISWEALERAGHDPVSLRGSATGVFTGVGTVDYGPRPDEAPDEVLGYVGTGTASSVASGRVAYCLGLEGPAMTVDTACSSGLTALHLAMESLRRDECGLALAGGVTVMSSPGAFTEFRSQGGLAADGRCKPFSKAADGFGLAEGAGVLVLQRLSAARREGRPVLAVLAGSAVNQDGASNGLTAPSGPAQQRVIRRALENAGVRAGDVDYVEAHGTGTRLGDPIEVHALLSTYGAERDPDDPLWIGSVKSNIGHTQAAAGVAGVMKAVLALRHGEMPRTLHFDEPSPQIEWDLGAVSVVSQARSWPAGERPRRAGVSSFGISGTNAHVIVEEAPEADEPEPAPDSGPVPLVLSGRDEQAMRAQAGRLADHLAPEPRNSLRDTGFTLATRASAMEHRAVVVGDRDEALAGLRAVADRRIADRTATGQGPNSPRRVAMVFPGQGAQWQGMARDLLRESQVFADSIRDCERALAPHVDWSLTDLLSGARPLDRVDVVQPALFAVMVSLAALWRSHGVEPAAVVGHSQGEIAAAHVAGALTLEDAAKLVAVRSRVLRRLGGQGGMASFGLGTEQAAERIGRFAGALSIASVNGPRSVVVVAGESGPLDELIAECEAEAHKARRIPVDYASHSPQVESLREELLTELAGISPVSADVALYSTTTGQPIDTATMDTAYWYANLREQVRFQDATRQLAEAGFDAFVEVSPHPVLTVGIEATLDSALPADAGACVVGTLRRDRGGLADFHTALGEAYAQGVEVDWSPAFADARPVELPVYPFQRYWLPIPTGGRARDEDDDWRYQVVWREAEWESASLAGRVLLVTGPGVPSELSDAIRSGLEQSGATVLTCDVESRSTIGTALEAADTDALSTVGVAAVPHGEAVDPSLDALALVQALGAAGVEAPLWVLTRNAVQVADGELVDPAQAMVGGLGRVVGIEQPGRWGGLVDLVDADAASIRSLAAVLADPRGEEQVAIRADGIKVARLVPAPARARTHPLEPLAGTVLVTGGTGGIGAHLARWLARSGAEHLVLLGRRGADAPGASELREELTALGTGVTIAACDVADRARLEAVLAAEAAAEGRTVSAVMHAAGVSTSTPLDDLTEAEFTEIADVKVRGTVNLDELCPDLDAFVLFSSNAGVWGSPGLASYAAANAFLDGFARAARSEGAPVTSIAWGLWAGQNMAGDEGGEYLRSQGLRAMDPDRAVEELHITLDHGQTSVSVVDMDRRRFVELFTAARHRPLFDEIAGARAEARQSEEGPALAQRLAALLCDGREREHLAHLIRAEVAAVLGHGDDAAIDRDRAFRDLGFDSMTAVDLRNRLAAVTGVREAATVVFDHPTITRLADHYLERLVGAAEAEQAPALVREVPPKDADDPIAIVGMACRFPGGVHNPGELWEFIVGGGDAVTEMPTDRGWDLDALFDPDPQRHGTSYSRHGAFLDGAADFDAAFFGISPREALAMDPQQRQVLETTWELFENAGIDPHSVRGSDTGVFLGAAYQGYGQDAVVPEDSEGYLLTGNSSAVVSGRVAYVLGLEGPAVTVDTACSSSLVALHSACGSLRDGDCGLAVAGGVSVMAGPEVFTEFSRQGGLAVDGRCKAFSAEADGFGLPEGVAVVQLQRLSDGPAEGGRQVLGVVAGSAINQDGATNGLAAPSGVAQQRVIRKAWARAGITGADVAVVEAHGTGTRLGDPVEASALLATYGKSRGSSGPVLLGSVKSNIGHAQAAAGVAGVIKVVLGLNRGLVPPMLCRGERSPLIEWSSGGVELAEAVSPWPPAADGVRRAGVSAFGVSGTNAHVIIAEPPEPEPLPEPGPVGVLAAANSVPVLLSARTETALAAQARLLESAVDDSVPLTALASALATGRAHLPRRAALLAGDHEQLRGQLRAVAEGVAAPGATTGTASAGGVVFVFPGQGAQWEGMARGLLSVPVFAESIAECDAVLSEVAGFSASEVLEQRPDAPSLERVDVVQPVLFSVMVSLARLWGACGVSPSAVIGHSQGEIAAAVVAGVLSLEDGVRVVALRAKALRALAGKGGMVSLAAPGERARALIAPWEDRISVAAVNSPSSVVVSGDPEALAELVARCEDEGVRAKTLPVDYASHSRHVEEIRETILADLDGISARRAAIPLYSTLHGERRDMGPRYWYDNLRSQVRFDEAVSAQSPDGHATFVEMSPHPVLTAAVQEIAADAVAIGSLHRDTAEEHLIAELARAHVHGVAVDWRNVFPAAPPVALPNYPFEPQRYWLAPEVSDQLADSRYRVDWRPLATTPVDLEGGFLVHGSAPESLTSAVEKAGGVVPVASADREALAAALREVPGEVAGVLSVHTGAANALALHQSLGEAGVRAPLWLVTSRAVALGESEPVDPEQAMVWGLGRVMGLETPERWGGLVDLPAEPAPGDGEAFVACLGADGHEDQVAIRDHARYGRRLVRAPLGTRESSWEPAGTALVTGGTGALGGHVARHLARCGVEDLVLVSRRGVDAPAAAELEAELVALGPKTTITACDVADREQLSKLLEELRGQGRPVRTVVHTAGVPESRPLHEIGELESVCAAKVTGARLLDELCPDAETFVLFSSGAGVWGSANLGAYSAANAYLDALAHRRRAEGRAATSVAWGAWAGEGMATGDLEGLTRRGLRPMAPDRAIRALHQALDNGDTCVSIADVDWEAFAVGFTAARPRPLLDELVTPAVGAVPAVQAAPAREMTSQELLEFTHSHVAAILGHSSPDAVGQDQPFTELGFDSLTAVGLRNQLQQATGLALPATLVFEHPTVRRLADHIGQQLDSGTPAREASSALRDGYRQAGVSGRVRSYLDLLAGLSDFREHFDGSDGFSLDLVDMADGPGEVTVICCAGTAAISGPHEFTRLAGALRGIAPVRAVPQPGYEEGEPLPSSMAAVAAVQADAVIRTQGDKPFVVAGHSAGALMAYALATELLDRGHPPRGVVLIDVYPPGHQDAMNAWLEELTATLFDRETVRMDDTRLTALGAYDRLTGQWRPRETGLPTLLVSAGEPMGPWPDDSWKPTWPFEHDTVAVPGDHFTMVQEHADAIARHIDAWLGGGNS

stoichiometry N [1]: 2
Compound: DEBS module 6 including its C-terminal TE domain (DEBS M6+TE), wildtype (domain or fragment)

Compound: CC(F)(C(=O)O)C(=O)SCCNC(=O)CCNC(=O)[C@H](O)C(C)(C)COP(=O)(O)OP(=O)(O)OC[C@H]1O[C@@H](n2cnc3c(N)ncnc32)[C@H](O)[C@@H]1OP(=O)(O)O (mixture of isomers) [compound 17, F-MM-CoA]
Km [2]: the MAT showed excellent transfer kinetics for F-MM-CoA

Compound: CC(C(=O)O)C(=O)SCCNC(=O)CCNC(=O)[C@H](O)C(C)(C)COP(=O)(O)OP(=O)(O)OC[C@H]1O[C@@H](n2cnc3c(N)ncnc32)[C@H](O)[C@@H]1OP(=O)(O)O (some centres unmarked) [MM-CoA]
turnover rate ([3]; diketide 2, NADPH): Turnover rates for the WT-, H1- and H2-mediated formation of TKLs

Compound: CC[C@@H](O)[C@H](C)C(=O)SCCNC(C)=O [compound 2, (2S,3R)-2-methyl-3-hydroxypentanoyl-N-acetylcysteamine thioester]
turnover rate ([3]; MM-CoA, NADPH): Turnover rates for the WT-, H1- and H2-mediated formation of TKLs

Compound: CC(C)(COP(=O)(O)OP(=O)(O)OC[C@H]1O[C@@H](n2cnc3c(N)ncnc32)[C@H](O)[C@@H]1OP(=O)(O)O)[C@@H](O)C(=O)NCCC(=O)NCCSC(=O)C(F)C(=O)O (mixture of isomers) [compound 1, F-Mal-CoA]
Km [2]: we observed excellent transfer kinetics of MAT for F-Mal-CoA
